Patent US5770625A, “Butyryl-tyrosinyl spermine, analogs thereof and methods of preparing and using same” (priority 1994, dated 1998)
Where two headings read alike, the source gives them in different places.

Test system: postsynaptic QUIS-R of locust leg muscle
Test: Antagonism of neurally-evoked twitch contraction of locust retractor unguis nerve-muscle preparation
Design: species or system Schistocerca gregaria
Settings: for IC50: read-out: IC50
Description: Electrophysiological studies. The metathoracic retractor unguis nerve-muscle preparation of the locust Schistocerca gregaria was dissected and mounted in a small Perspex bath as described previously (21). The pharmacological activity on the locust nerve muscle preparation, using reduction in neurally evoked twitch amplitude as the measure of activity. Ten fractions were pharmacologically active. […] Further purification of this fraction by reverse-phase HPLC gave four peaks (FIG. 2B), the most pharmacologically was in the major peak (hatched FIG. 2B) . This fraction gave 1.1 mg of toxin as amorphous powder.
The retractor unguis muscle and its nerve were dissected from the metathoracic legs of adult, female locusts (Schistocerca gregaria) and mounted in a Perspex perfusion chamber as described by Usherwood and Machili (21) and Bateman, et al. (14). The muscle was stretched to maximal body length and attached at its tendon or apodeme to a Grass FT 10-strain gauge by a short length of nylon thread. The volume of the muscle bath was about 0.5 ml and its contents could be exchanged within 1 sec. The preparation was perfused continuously at the rate of 5-10 ml min^-1 (except during the application of toxin (see below)) with standard locust saline of the following composition (mM): NaCl, 180; KCl, 10; CaCl2, 2; Hepes, 10; buffered to pH 6.8. The retractor unguis muscle is innervated by two excitatory motoneurons (30) and an inhibitory motoneuron (19,32), but the influence of the latter on the responsiveness of the muscle is slight. Maximal stimulation of the retractor unguis nerve at 0.2 Hz produced a series of twitch contractions of constant amplitude, which were maintained for many hours in good preparations. The test compounds were kept at -20° C. They were dissolved in locust saline on the day of the assay and tested at room temperature. The compounds were applied by pipette to a nerve-muscle preparation such that the contents of the perfusion bath were completely replaced by the test solution. Exposure to the test compound lasted 20 min. Because of the limited availability of some of the compounds, the preparation was not perfused during this period. However, the amplitude of the retractor unguis muscle twitch rarely changed by more than 5-10% over a 20 minute period. During application of the test solutions the stimulation frequency was raised to 0.6 Hz for brief periods to test for stimulus frequency-dependent effects on twitch amplitude (31,37). Dose-inhibition data were obtained by testing the effects, on single retractor unguis muscle preparations, of a range of concentrations of the test compounds. Each concentration of the respective samples was tested at least thee times, and each compound was assayed usually over a 100-fold concentration range (a total of 7-10 concentrations). The standard deviations for twitch inhibition for any given concentration of a toxin rarely exceed 10%. Those compounds for which the deviation was greater than this are identified in Tables 1-7. There was some variation in the potency of PhTX-343 and the test compounds between nerve-muscle preparations. In order to compensate for this, the following procedure was adopted: PhTX-343 was assayed at a variety of concentrations on eight retractor unguis nerve-muscle preparations to give a cumulative dose-inhibition relationship for this toxin. The concentration of PhTX-343 which reduced the twitch contraction by 50% (IC50) was then determined by fitting a curve to the data using the following equation: [formula] where: [T]= toxin concentration, I= % inhibition, Imax =maximum inhibition= 100% and n' represents the Hill slope coefficient. […] The ratio of the actual reduction in twitch amplitude obtained with this single concentration of PhTX-343 and the 50% reduction that was anticipated from the cumulative dose-inhibition relationship for this toxin, was then used as a factor to normalize the data for the test compound. […]

[1] = Table 5, modifications to more than one region
[2] = Table 2, region B modifications, * SD < 20%
[3] = Table 2, relative to PhTX-343 = 1.0
[4] = Table 3, region C modifications
[5] = Table 3, relative to PhTX-343 = 1.0

CCCCCCC(=O)NCCCNCCCCNCCCN [Compound 48, Heptanoylspermine-amide]
potency compared with PhTX-343 or other analogues (in words): low potencies

CCCC(=O)N[C@@H](Cc1ccc(O)cc1)C(=O)NCCC[N+](C)(C)CCCC[N+](C)(C)CCC[N+](C)(C)C [Compound 9]
potency compared with PhTX-343 or other analogues (in words): reduced potency compared with PhTX-343

CCCCCCC(=O)N[C@@H](Cc1ccc(O)cc1)C(=O)NCCCNCCCCNCCCNC(=O)[C@H](Cc1ccc(O)cc1)NC(=O)CCCCCC
IC50 (M) (Table 6, bis analogues of PhTX-343): insol.

CCCC(=O)N[C@@H](C)C(=O)NCCCNCCCCNCCCN [Compound 15]
potency compared with PhTX-343 or other analogues (in words): slightly reduced

CCCC(=O)N[C@@H](Cc1ccc(O)cc1)C(=O)NCCCCNCC(C)CNCCCN (some centres unmarked) [drawing 27]
IC50 (Table 1, region A modifications, 20 min exposure, normalized with PhTX-343, ** SD < 30%): 40 µM | Relative Potency (Table 1, relative to PhTX-343 = 1.0): 0.6

[N-]=[N+]=Nc1ccc(C(=O)N[C@@H](Cc2ccc(O)cc2)C(=O)NCCCNCCCCNCCCNC(=O)[C@@H](N)CCCCN)cc1 [Compound 40, N-(p-azidobenzamide)-L-tyrosyl-spermine-L-lysine-triamide]
IC50 [1]: 3.3 µM | Relative Potency (Table 5, relative to PhTX-343): 7

CCCC(=O)N[C@@H](Cc1ccc(OC(C)=O)cc1)C(=O)NCCCNCCCCNCCCN [Compound 11]
potency compared with PhTX-343 or other analogues (in words): unchanged potencies

CCCC(=O)N[C@@H](Cc1ccc(O)cc1)C(=O)NCCCNCCCCNCCCNC(=O)[C@@H](N)CCCNC(=N)N [Compound 36, PhTX-343-L-arginine-amide]
potency compared with PhTX-343 or other analogues (in words): increased potency

CCCC(=O)N[C@@H](CC(C)C)C(=O)NCCCNCCCCNCCCN [drawing 36]
IC50 [2]: 23 µM | Relative Potency [3]: 1.0

CCCC(=O)N[C@@H](Cc1cc(I)c(O)c(I)c1)C(=O)NCCCNCCCCNCCCNC(=O)[C@@H](N)CCCCN [drawing 65]
IC50 [1]: 1.7 µM | Relative Potency (Table 5, relative to PhTX-343): 14

CCCC(=O)N[C@@H](Cc1cc(I)c(O)c(I)c1)C(=O)NCCCNCCCCNCCCNC(=O)[C@@H](N)CCCNC(=N)N [Compound 39, diiodo-PhTX-arginine]
potency compared with PhTX-343 or other analogues (in words): more potent than PhTX-343

NCCCNCCCCNCCCNC(=O)[C@H](Cc1ccc(O)cc1)NC(=O)C1CCCCC1 [Compound 22]
potency compared with PhTX-343 or other analogues (in words): equal to that of compound 19

CCCC(=O)N[C@@H](Cc1ccc(O)cc1)C(=O)NCCCNCCCCNCCCNC(=O)C(N)CCCCNC(=O)C(N)CCCCN (some centres unmarked) [Compound 37]
potency compared with PhTX-343 or other analogues (in words): more active than compound 35

CCCCCCCCCC(=O)N[C@@H](Cc1ccc(O)cc1)C(=O)NCCCNCCCCNCCCN [Compound 20, C10-PhTX-343]
potency compared with PhTX-343 or other analogues (in words): successive increases in potency | IC50 [4]: 1.4 µM | Relative Potency [5]: 16.0

CCCC(=O)N[C@@H](Cc1ccc(O)cc1)C(=O)NCCCNCCCCNCCCN [drawing 41]
IC50 [4]: 23 µM | Relative Potency [5]: 1.0

CCCC(=O)NCC(=O)NCCCNCCCCNCCCN [drawing 38]
IC50 [2]: 130 µM | Relative Potency [3]: 0.2

CCCC(=O)N[C@@H](Cc1ccc(OCc2ccccc2)cc1)C(=O)NCCCNCCCCNCCCN [drawing 34]
IC50 [2]: 24 µM | Relative Potency [3]: 1.0

[N-]=[N+]=Nc1ccc(C(=O)N[C@@H](Cc2cc(I)c(O)c(I)c2)C(=O)NCCCNCCCCNCCCNC(=O)[C@@H](N)CCCCN)cc1 [drawing 68]
IC50 [1]: 1.8 µM | Relative Potency (Table 5, relative to PhTX-343): 13

CC(=O)N[C@@H](Cc1ccc(O)cc1)C(=O)NCCCNCCCCNCCCN [drawing 42]
IC50 [4]: 50 µM | Relative Potency [5]: 0.7

NCCCNCCCCNCCCNC(=O)[C@H](Cc1ccc(O)cc1)NC(=O)Cc1ccccc1 [Compound 24]
potency compared with PhTX-343 or other analogues (in words): less potent than PhTX-343

CCCCCCC(=O)NCCCNCCCCNCCCN [drawing 77]
IC50 (Table 7, mono-acyl spermine analogues): 100 µM | Relative Potency (Table 7, mono-acyl spermine analogues, relative to PhTX-343): 0.2

CCCC(=O)N[C@@H](Cc1ccc(O)cc1)C(=O)NCCCCNCCCN [Compound 4, PhTX-43]
potency compared with PhTX-343 or other analogues (in words): reduced potency

NCCCNCCCCNCCCNC(=O)[C@H](Cc1ccc(O)cc1)NC(=O)c1ccccc1 [Compound 23]
potency compared with PhTX-343 or other analogues (in words): equipotent with the C10 analogue 20
